In brackets after ≈: the same amount, converted by molar mass.
Assays:
MDA-MB-231 = assay: MTT cell proliferation assay, breast cancer cell line MDA-MB-231; format: cell-based, human; settings: single inhibitor, 72 hours culture; for minimum inhibitory concentration (cell proliferation): FIG. 1; for minimum proliferation inhibitory concentration: FIG. 1C, 1F
Text: In the experiments described below, the cells used are human breast and colon cancer cell lines. The breast cancer cell lines were obtained from Lombarda Cancer Center, Georgetown University Medical Center. The breast cancer lines are cell lines called […] and Hs578T. These cells show a high rate of proliferation, absence of estrogen receptors, are capable of forming tumors in naked mice and show a highly aggressive phenotype. Both lines are used very frequently as breast cancer models. The colon cancer cell line is the cell line called SW620 that was originally isolated from the lymphatic nodules of a patient with colon adenocarcinoma.
The cells are cultivated in polystyrene culture bottles (Corning, Corning, N.Y.). Both cell lines are kept in culture in DMEM medium (Dulbeco's Modified Tagle Medium, obtained from Gibco, Invitrogen Corporation, NY. USA) and supplemented with 10% fetal bovine serum (FBS) (obtained from PAA, GmbH Laboratories, Pasching, Austria), and supplemented with 100 U/ml of penicillin and 10 μg/ml of streptomycin (Gibco, Invitrogen Corporation, NY, USA) in incubator 37° C. In humidified atmosphere of […]/5% CO2.
There were carried out curves of dose-cell proliferation inhibition response of the human breast cancer cell line MDA-MB-231, with the intent of objectively knowing the minimum concentrations that produce a proliferation inhibiting effect.
In all the cases, the cell proliferation measurement was carried out using the MTT techniques of incorporation of Bromodeoxyuridine (BrdUr) (5-bromine-2′-deoxyuridine of Elisa Roche Applied Science, Mannheim, Germany) and the violet crystal coloration technique.
The cells were cultivated in microplates (Orange Scientific) of 96 cavities in the amount of 4,000 cells per cavity in 200 ul of DMEM supplemented with FCS supplemented with 100 U/ml of penicillin and 10 ug/ml of streptomycin in incubator at 37° C. with atmosphere of […]/5% CO2. A the end of this period, the cells were cultivated for another 24 hours in culture medium in the absence of serum. At the end of this period, culture medium with scram in the absence (control) or presence of different inhibitors was added, in accordance with the following:
The cells were kept in culture for 72 hours. Then, thiazol blue bromide reagent was added (3-(4,5-dimethylthiazol-[…])-2,5-diphenyltetrazolium bromide). It was incubated for 180 minutes at 37° C. After this time, the culture medium was discarded and the formazan crystals formed were dissolved with 200 ul of dimethylsulfoxide. The microplates were agitated for 15 minutes to dilute the crystals of homogeneous form, and absorbance was determined at 620 nm in a plate reader, “Biotra II, plate reader,” of Amersham Biosciences Inc., Piscataway, N.J., USA.

cell growth = settings: Min Yao et al. 2005; cited from earlier work
[1] = test system: cells of the microvascular endothelium; settings: per se inhibitory doses of 75 μM; Kakiuchi-Kiyota et al. 2009; cited from earlier work
COX-2 enzyme = target: T1, COX-2 enzyme (Homo sapiens, UniProt P35354); settings: plasma concentrations; cited from earlier work
T1 sequence (P35354 18-604): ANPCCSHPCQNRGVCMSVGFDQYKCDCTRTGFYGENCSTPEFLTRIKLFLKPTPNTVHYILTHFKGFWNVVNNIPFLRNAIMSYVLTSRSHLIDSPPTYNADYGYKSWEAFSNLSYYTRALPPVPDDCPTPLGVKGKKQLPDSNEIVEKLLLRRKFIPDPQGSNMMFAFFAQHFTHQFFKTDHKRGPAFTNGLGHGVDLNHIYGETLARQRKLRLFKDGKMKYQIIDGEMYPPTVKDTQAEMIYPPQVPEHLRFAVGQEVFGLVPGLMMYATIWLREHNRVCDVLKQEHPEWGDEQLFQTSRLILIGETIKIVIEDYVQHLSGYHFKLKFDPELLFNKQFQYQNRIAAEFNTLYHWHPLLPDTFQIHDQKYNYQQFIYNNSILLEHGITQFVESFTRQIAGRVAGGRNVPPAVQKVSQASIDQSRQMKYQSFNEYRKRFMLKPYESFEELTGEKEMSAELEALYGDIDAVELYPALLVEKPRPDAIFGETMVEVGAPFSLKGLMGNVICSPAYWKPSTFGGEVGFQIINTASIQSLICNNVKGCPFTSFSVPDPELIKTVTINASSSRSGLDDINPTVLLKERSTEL

| SMILES | minimum inhibitory concentration (cell proliferation) (MDA-MB-231) [µM] | other results |
| --- | --- | --- |
| CC(C)Cc1ccc(C(C)C(=O)O)cc1 (stereo not shown) [Ibuprofen] | 500 (≈ 103 µg/mL) | dose for cell growth inhibition (cell growth): at least 500 μM |
| CC1=C(C)C(=O)C(CCCCC#CCCCC#CCO)=C(C)C1=O [AA861, Docebenone] | 10 (≈ 3.26 µg/mL) |  |
| COc1cc(C(=O)NS(=O)(=O)c2ccccc2C)ccc1Cc1cn(C)c2ccc(NC(=O)OC3CCCC3)cc12 [Zafirlukast] |  | minimum proliferation inhibitory concentration (MDA-MB-231): > 100 nM |
| CN(CCOc1ccc(CC2SC(=O)NC2=O)cc1)c1ccccn1 (stereo not shown) [Rosiglitazone] | 75 (≈ 26.8 µg/mL) |  |
| Cc1c(C)c2c(c(C)c1O)CCC(C)(COc1ccc(CC3SC(=O)NC3=O)cc1)O2 (stereo not shown) [Troglitazone] | 75 (≈ 33.1 µg/mL) | toxic effects on endothelial cells [1]: toxic effects were described |
| CC(=O)Oc1ccccc1C(=O)O [aspirin, acetylsalicylic acid] |  | plasma concentration inhibiting COX-2 enzyme (COX-2 enzyme): greater than 0.5 mM |
| Cc1ccc(-c2ncc(Cl)cc2-c2ccc(S(C)(=O)=O)cc2)cn1 [Etoricoxib] |  | minimum proliferation inhibitory concentration (MDA-MB-231): 1000 nM |
| CC(c1cc2ccccc2s1)N(O)C(N)=O (stereo not shown) [Zileuton] | 500 (≈ 118 µg/mL) |  |

— US20120178782A1, “COMPOSITIONS AND METHODS FOR TREATING PROLIFERATIVE DISEASES” (priority 2009, published 2012)
